Measured values as given in patent US20110039763A1, “TARGETED ANTIMICROBIAL MOIETIES” (C3 JIAN, INC., priority 2009, published 2011).
“Also recorded” adds a separate entry of the source. Square brackets hold non-standard residues; d marks the D form. Ends that are not written are not given here. dOrn = NCCC[C@@H](N)C(=O)O; Orn = NCCC[C@H](N)C(=O)O

These substances were tested on microorganisms (assay: Targeting peptide binding to target microorganisms (Tables 3, 10, 12)). Conditions: microorganism(s) the targeting peptide binds; binding in aqueous buffers that varied with peptide solubility, preferably 1x PBS.

| Substance | Target(s) |
| --- | --- |
| PF-047 (NQEPSLQQDKEQKDNKG; Peptide with targeting and/or antimicrobial activity) | S. mutans |
| PF-S024 (SKRGRKRKDRRKKKANHGKRPNS; Peptide with targeting and/or antimicrobial activity) | Corynebacteria |
| Py Pf 12 ([dS]KG[Orn][dS]SGK[dOrn]ES; not fully specified (bridges)) | P. fluorescens |
| 1T-270 (VHEFDIQKILQNR; Peptide with targeting and/or antimicrobial activity) | F. nucleatum; also recorded: S. mutans; also recorded: S. oralis; also recorded: S. sanguinis |
| 1T-193 (LMIFDKHANLKYKYGNRSFGVEAIM; Peptide with targeting and/or antimicrobial activity) | S. sanguinis |
| PF-062 (MKKKRINNDILGRMIYSSSIDKRNLYNLKYYE; Peptide with targeting and/or antimicrobial activity) | S. epidermidis and M. luteus and E. coli and P. aeruginosa and MRSA and S. pneumoniae and E. faecalis and C. jeikeium |

Same assay, conditions: microorganism(s) the targeting peptide binds; binding in aqueous buffers varied with peptide solubility, preferably 1x PBS

| Substance | Target(s) |
| --- | --- |
| PF-773 (TLKESK; Peptide with targeting and/or antimicrobial activity) | S. epidermidis; also recorded: C. albicans; also recorded: C. jeikeium |
| PF-282 (QNNDTSAWCGSAHKNGNS; Peptide with targeting and/or antimicrobial activity) | S. mutans |
| PF-177 (VTSEPGIAHDIRLLPRAAAFR; Peptide with targeting and/or antimicrobial activity) | M. luteus and MRSA and E. faecalis and C. jeikeium |
| PF-701 (PRGAQSGHG; Peptide with targeting and/or antimicrobial activity) | S. mutans |
| PF-132 (RPGDGAAEQGRSR; Peptide with targeting and/or antimicrobial activity) | S. epidermidis; also recorded: C. jeikeium |
| PF-C080 (INIPGLF; Peptide with targeting and/or antimicrobial activity) | A. naeslundii; also recorded: F. nucleatum; also recorded: S. mutans |
| PF-711 (KTAGPTGTIYKTN; Peptide with targeting and/or antimicrobial activity) | S. mutans |
| PF-338 (KGTSCPDQLSKAIRQSI; Peptide with targeting and/or antimicrobial activity) | S. mutans |
| PF-333 (YMTKKLVEMAEQQMAGKSNR; Peptide with targeting and/or antimicrobial activity) | S. mutans |
| PF-506 (SGRGFALIVVLFILLIIVGAACIR; Peptide with targeting and/or antimicrobial activity) | S. mutans; also recorded: E. coli |
| PF-194 (MKGNKLATAHEQPVKNSAPPL; Peptide with targeting and/or antimicrobial activity) | C. jeikeium |
| PF-C160 (AASGFTYCASNGVWHPY; Peptide with targeting and/or antimicrobial activity) | F. nucleatum |
| MLTSRKKRLKKIVEEQNKKDESI [PF-336] | S. mutans; also recorded: E. coli |
| PF670 (chain 1 TVIVAPMHSGV; chain 2 TVIVAPMHSGV; Peptide with targeting and/or antimicrobial activity) | Mycobacteria spp |
| PF-154 (GIKKSKHPSTDDYVVKTTIDSL; Peptide with targeting and/or antimicrobial activity) | S. mutans |
| PF-785 (MRPQHSPAGKAFVVKKITHEQS; Peptide with targeting and/or antimicrobial activity) | Mycobacteria spp. |
| PF-402 (FIDVLKSKINEFLN; Peptide with targeting and/or antimicrobial activity) | S. epidermidis; also recorded: P. aeruginosa; also recorded: E. faecalis; also recorded: C. jejuni |
| PF-229 (DPILIQIGFTRFALRKAEAEKIEIQVEEGVPA; Peptide with targeting and/or antimicrobial activity) | S. epidermidis; also recorded: M. luteus; also recorded: P. aeruginosa; also recorded: A. baumannii |
| PF-728 (AIGQEQDRREYYYYSGYPYYY; Peptide with targeting and/or antimicrobial activity) | S. mutans; also recorded: E. coli |
| PF-329 (IGILFDKSVRKY; Peptide with targeting and/or antimicrobial activity) | S. epidermidis |
| PF-S018 (GMPQIPRLRI; Peptide with targeting and/or antimicrobial activity) | S. epidermidis and M. luteus and C. albicans and MRSA and E. faecalis and C. jeikeium and C. jejuni |
| PF-673 (VRRLRM; Peptide with targeting and/or antimicrobial activity) | S. mutans; also recorded: E. coli |
| PF-284 (MRYITYSLIPRLLSKKVIHQQ; Peptide with targeting and/or antimicrobial activity) | C. difficile |

Same assay, conditions: peptide binding in aqueous buffers that varied with peptide solubility; preferably 1x PBS

| Substance | Target(s) (microorganism bound by the targeting peptide) |
| --- | --- |
| 1T-18 (YSKTLHFAD; Peptide with targeting and/or antimicrobial activity) | S. aureus; also recorded: S. epidermidis; also recorded: C. striatum; also recorded: P. aeruginosa |
| 1T-15 (DVILRVEAQ; Peptide with targeting and/or antimicrobial activity) | S. mutans |
| 1T-67 (GQRQRLTCGRVSGCSEGPSREAAR; Peptide with targeting and/or antimicrobial activity) | S. aureus; also recorded: S. epidermidis; also recorded: C. jeikeium; also recorded: C. xerosis; also recorded: C. striatum; also recorded: P. aeruginosa |
| 1T-141 (KKFIILLFILVQGLIFSATKTLSDIIAL; Peptide with targeting and/or antimicrobial activity) | F. nucleatum; also recorded: P. gingivalis; also recorded: S. epidermidis; also recorded: S. gordonii; also recorded: S. mitis; also recorded: S. mutans; also recorded: S. oralis; also recorded: S. sanguinis |
| 1T-110 (LAAKTAVCVGRAFM; Peptide with targeting and/or antimicrobial activity) | A. naeslundii; also recorded: P. gingivalis; also recorded: S. epidermidis; also recorded: S. gordonii; also recorded: S. mitis; also recorded: S. mutans; also recorded: S. oralis; also recorded: S. sanguinis |
| 1T-47 (VIKISVPGQVQMLIP; Peptide with targeting and/or antimicrobial activity) | S. mutans; also recorded: S. epidermidis; also recorded: P. aeruginosa |
| 1T-16 (IDMR; Peptide with targeting and/or antimicrobial activity) | P. aeruginosa |
| 1T-112 (SDNDGKLILGTSQ; Peptide with targeting and/or antimicrobial activity) | S. gordonii |
| 1T-17 (NNAIVYIS; Peptide with targeting and/or antimicrobial activity) | S. mutans |
| 1T-11 (RISE; Peptide with targeting and/or antimicrobial activity) | S. mutans; also recorded: S. epidermidis; also recorded: P. aeruginosa |
